Values quoted from earlier work as cited in PubChem BioAssay AID1259409 (Chemical Carcinogenesis Research Information System (CCRIS), 2018).

Test system: rodent chemically induced tumor inhibition, incidence and multiplicity
Test: CCRIS tumor inhibitor studies
Conditions: for outcome: Carcinogen: 7,12-Dimethylbenz[a]anthracene, 57-97-6 and 12-O-Tetradecanoylphorbol-13-acetate, Dose [Inhibitor]: 50 ug/ml in acetone by topical application starting on the 16th wk and continuing to end of study (study duration: 30 wk, Route [Inhibitor]: Skin, Species: Mouse, Strain/Sex: Albino/Sex not given, Target Tissue: Type of Lesion: Skin, Dose [Carcinogen]: DMBA in acetone, 100 ug/ml, single topical dose, TPA in acetone, 10 ug/ml, topical administration twice a wk for 15 wk

CC1=C(/C=C/C(C)=C/C=C/C(C)=C\C(=O)O)C(C)(C)CCC1
tumour outcome (control, treated, inhibition, significance) (Carcinogen: 1,2-DIMETHYLHYDRAZINE, 540-73-8, Dose [Inhibitor]: 67 µM/G DIET, Route [Inhibitor]: ORAL, Species: RAT, Strain/Sex: SPRAGUE-DAWLEY/MALE, Target Tissue: Type of Lesion: COLON: TUMOR, Dose [Carcinogen]: 30 MG/KG BW 1/WK FOR 5 WK, Promoter: NONE USED): 20/20 (100%), 8/20 (40%), 60%, not calculated | tumour outcome (control, treated, inhibition, significance) (Carcinogen: 1,2-DIMETHYLHYDRAZINE, 5400-73-8, Dose [Inhibitor]: 67 UG/G DIET FED SIMULTANEOUSLY DURING CARCINOGEN TREATMENT (STUDY DURATION: 46 WK), Route [Inhibitor]: ORAL, Species: RAT, Strain/Sex: WISTAR/FEMALE, Target Tissue: Type of Lesion: COLON: ADENOCARCINOMA, Dose [Carcinogen]: 15 MG/KG BW/WK FOR 28 WK, Promoter: NONE USED): 8/12 (67%), 5/10 (50%), 25%, not significant | tumour outcome (control, treated, inhibition, significance) (Carcinogen: 1,2-DIMETHYLHYDRAZINE, 5400-73-8, Dose [Inhibitor]: 67 UG/G DIET FED SIMULTANEOUSLY DURING CARCINOGEN TREATMENT (STUDY DURATION: 46 WK), Route [Inhibitor]: ORAL, Species: RAT, Strain/Sex: WISTAR/FEMALE, Target Tissue: Type of Lesion: SMALL INTESTINE: ADENOCARCINOMA, Dose [Carcinogen]: 15 MG/KG BW/WK FOR 28 WK, Promoter: NONE USED): 8/12 (67%), 9/10 (90%), -34%, not significant | tumour outcome (control, treated, inhibition, significance) (Carcinogen: 3-METHYLCHOLANTHRENE, 56-49-5, Dose [Inhibitor]: 3 MG IN 0.1 ML ACETONE STARTING 2 WK AFTER START OF CARCINOGEN TREATMENT AND APPLIED 2/WK DURING WK 3-5 OF THE STUDY AND, Route [Inhibitor]: DERMAL, Species: MOUSE, Strain/Sex: SWISS/FEMALE, Target Tissue: Type of Lesion: SKIN: CARCINOMA, Dose [Carcinogen]: 0.1 ML OF 0.3% DISSOLVED IN ACETONE APPLIED 2/WK FIRST 5 WK THEN 1/WK FOR WK 6-9 FOLLOWED BY NO FURTHER TREATMENT THROUG, Promoter: NONE USED): 5/19 (26%), 2/20 (10%), 62%, not calculated | tumour outcome (control, treated, inhibition, significance) (Carcinogen: 3-METHYLCHOLANTHRENE, 56-49-5, Dose [Inhibitor]: 3 MG IN 0.1 ML ACETONE STARTING 2 WK AFTER START OF CARCINOGEN TREATMENT AND APPLIED 2/WK DURING WK 3-5 OF THE STUDY AND, Route [Inhibitor]: DERMAL, Species: MOUSE, Strain/Sex: SWISS/FEMALE, Target Tissue: Type of Lesion: SKIN: PAPILLOMA, Dose [Carcinogen]: 0.1 ML OF 0.3% DISSOLVED IN ACETONE APPLIED 2/WK FIRST 5 WK THEN 1/WK FOR WK 6-9 FOLLOWED BY NO FURTHER TREATMENT THROUG, Promoter: NONE USED): 9/19 (47%), 4/20 (20%), 57%, not calculated | outcome (16561-29-8, 16561-29-8): malignant lesions: 4/20 (20%), 4/20 (20%), not significant | outcome (16561-29-8, 16561-29-8, Promoter: None): malignant lesions: 5/20 (20%), 4/20 (20%), not significant | tumour outcome (control, treated, inhibition, significance) (Carcinogen: AZOXYMETHANE, 25843-45-2, Dose [Inhibitor]: 50 MG/KG DIET DAILY STARTING SIMULTANEOUSLY WITH CARCINOGEN TREATMENT AND CONTINUING THROUGH END OF STUDY (STUDY DURATIO, Route [Inhibitor]: ORAL, Species: RAT, Strain/Sex: SPRAGUE-DAWLEY/MALE, Target Tissue: Type of Lesion: LARGE INTESTINE: MALIGNANT TUMOR, Dose [Carcinogen]: 8 MG/KG BW 1/WK FOR 8 WK, Promoter: NONE USED): 90%, 90%, 0%, not significant | tumour outcome (control, treated, inhibition, significance) (Carcinogen: AZOXYMETHANE, 25843-45-2, Dose [Inhibitor]: 50 MG/KG DIET DAILY STARTING SIMULTANEOUSLY WITH CARCINOGEN TREATMENT AND CONTINUING THROUGH END OF STUDY (STUDY DURATIO, Route [Inhibitor]: ORAL, Species: RAT, Strain/Sex: SPRAGUE-DAWLEY/MALE, Target Tissue: Type of Lesion: SMALL INTESTINE: MALIGNANT TUMOR, Dose [Carcinogen]: 8 MG/KG BW 1/WK FOR 8 WK, Promoter: NONE USED): 90%, 83%, 8%, not significant | tumour outcome (control, treated, inhibition, significance) (Carcinogen: AZOXYMETHANE, 25843-45-2, Dose [Inhibitor]: 50 MG/KG IN DIET DAILY FOR 26 WK STARTING SIMULTANEOUSLY WITH CARCINOGEN TREATMENT (STUDY DURATION: 26 WK), Route [Inhibitor]: ORAL, Species: RAT, Strain/Sex: SPRAGUE-DAWLEY/MALE, Target Tissue: Type of Lesion: LARGE INTESTINE: MALIGNANT TUMOR, Dose [Carcinogen]: 8 MG/KG BW 1/WK FOR 8 WK, Promoter: NONE USED): 90%, 90%, 0%, not significant | tumour outcome (control, treated, inhibition, significance) (Carcinogen: AZOXYMETHANE, 25843-45-2, Dose [Inhibitor]: 50 MG/KG IN DIET DAILY FOR 26 WK STARTING SIMULTANEOUSLY WITH CARCINOGEN TREATMENT (STUDY DURATION: 26 WK), Route [Inhibitor]: ORAL, Species: RAT, Strain/Sex: SPRAGUE-DAWLEY/MALE, Target Tissue: Type of Lesion: SMALL INTESTINE: TUMOR, Dose [Carcinogen]: 8 MG/KG BW 1/WK FOR 8 WK, Promoter: NONE USED): 90%, 83%, 8%, not significant | tumour outcome (control, treated, inhibition, significance) (Carcinogen: BENZO[A]PYENE, 50-32-8, Dose [Inhibitor]: 17 NMOL 2/WK 0.5 HR BEFORE EACH PROMOTER APPLICATION FOR 24 WK STARTING 7 D AFTER CARCINOGEN APPLICATION (STUDY DURATION, Route [Inhibitor]: DERMAL, Species: MOUSE, Strain/Sex: SENCAR, Target Tissue: Type of Lesion: SKIN: PAPILLOMA, Dose [Carcinogen]: 400 NMOL ONCE, Promoter: ANTHRALIN, 1143-38-0): 73%, 83%, -14%, not significant | tumour outcome (control, treated, inhibition, significance) (Carcinogen: BENZO[A]PYENE, 50-32-8, Dose [Inhibitor]: 34 NMOL ONCE 0.5 HR BEFORE CARCINOGEN APPLICATION (STUDY DURATION: 25 WK), Route [Inhibitor]: DERMAL, Species: MOUSE, Strain/Sex: CD-1/FEMALE, Target Tissue: Type of Lesion: SKIN: PAPILLOMA, Dose [Carcinogen]: 200 NMOL IN 0.2 ML ACETONE ONCE 0.5 HR AFTER AGENT TREATMENT, Promoter: 12-O-TETRADECANOYLPHORBOL-13-ACETATE, 16561-29-8): 90%, 98%, -9%, not significant | tumour outcome (control, treated, inhibition, significance) (Carcinogen: BENZO[A]PYRENE, 50-32-8, Dose [Inhibitor]: 0, 240 MG/KG OF DIET FOR 6 WK (STUDY DURATION: 9 WK), Route [Inhibitor]: ORAL, Species: MOUSE, Strain/Sex: NIGP(S)/FEMALE, Target Tissue: Type of Lesion: LUNG: ADENOMA, Dose [Carcinogen]: 0.5 MG INJECTED IN THE SCAPULAR REGION OF NEWBORN MICE ONCE, Promoter: NONE USED): 35%, 55%, -57%, not calculated | tumour outcome (control, treated, inhibition, significance) (Carcinogen: BENZO[A]PYRENE, 50-32-8, Dose [Inhibitor]: 0, 240 MG/KG OF DIET FOR 6 WK (STUDY DURATION: 9 WK), Route [Inhibitor]: ORAL, Species: MOUSE, Strain/Sex: NIGP(S)/MALE, Target Tissue: Type of Lesion: LUNG: ADENOMA, Dose [Carcinogen]: 0.5 MG INJECTED IN THE SCAPULAR REGION OF NEWBORN MICE ONCE, Promoter: NONE USED): 48%, 42%, 13%, not calculated | tumour outcome (control, treated, inhibition, significance) (Carcinogen: N,N-DIMETHYLNITROSAMINE, 62-75-9, Dose [Inhibitor]: 240 MG/KG OF DIET DAILY FOR 3 WK STARTING 2 D AFTER CARCINOGEN TREATMENT AT 6 WK OF AGE AND THEN OBSERVED UNTIL DEATH (S, Route [Inhibitor]: ORAL, Species: RAT, Strain/Sex: WISTAR/FEMALE, Target Tissue: Type of Lesion: KIDNEY: MESENCHYMAL TUMOR, Dose [Carcinogen]: 40 MG/KG BW ONCE, Promoter: NONE USED): 22/27 (82%), 27/32 (84%), -2%, not significant | tumour outcome (control, treated, inhibition, significance) (Carcinogen: N,N-DIMETHYLNITROSAMINE, 62-75-9, Dose [Inhibitor]: 240 MG/KG OF DIET DAILY FOR 3 WK STARTING 2 D AFTER CARCINOGEN TREATMENT AT 6 WKOF AGE AND THEN OBSERVED UNTIL DEATH (ST, Route [Inhibitor]: ORAL, Species: RAT, Strain/Sex: WISTAR/FEMALE, Target Tissue: Type of Lesion: KIDNEY: EPITHELIAL TUMOR (ADENOMA, ADENOCARCINOMA), Dose [Carcinogen]: 40 MG/KG BW ONCE, Promoter: NONE USED): 13/27 (48%), 17/32 (53%), -10%, not significant | tumour outcome (control, treated, inhibition, significance) (Carcinogen: N,N-DIMETHYLNITROSAMINE, 62-75-9, Dose [Inhibitor]: 240 MG/KG OF DIET DAILY FOR 10 WK STARTING 2 D AFTER CARCINOGEN TREATMENT AT 6 WK OF AGE AND THEN OBSERVED UNTIL DEATH (, Route [Inhibitor]: ORAL, Species: RAT, Strain/Sex: WISTAR/FEMALE, Target Tissue: Type of Lesion: KIDNEY: EPITHELIAL TUMOR (ADENOMA, ADENOCARCINOMA), Dose [Carcinogen]: 40 MG/KG BW ONCE, Promoter: NONE USED): 13/27 (48%), 11/29 (38%), 21%, not significant | tumour outcome (control, treated, inhibition, significance) (Carcinogen: N,N-DIMETHYLNITROSAMINE, 62-75-9, Dose [Inhibitor]: 240 MG/KG OF DIET DAILY FOR 26 WK STARTING 2 D AFTER CARCINOGEN TREATMENT AT 6 WK OF AGE AND THEN OBSERVED UNTIL DEATH (, Route [Inhibitor]: ORAL, Species: RAT, Strain/Sex: WISTAR/FEMALE, Target Tissue: Type of Lesion: KIDNEY: EPITHELIAL TUMOR (ADENOMA, ADENOCARCINOMA), Dose [Carcinogen]: 40 MG/KG BW ONCE, Promoter: NONE USED): 13/27 (48%), 11/21 (52%), -8%, not significant | tumour outcome (control, treated, inhibition, significance) (Carcinogen: N,N-DIMETHYLNITROSAMINE, 62-75-9, Dose [Inhibitor]: 240 MG/KG OF DIET DAILY FOR 26 WK STARTING 2 D AFTER CARCINOGEN TREATMENT AT 6 WK OF AGE AND THEN OBSERVED UNTIL DEATH (, Route [Inhibitor]: ORAL, Species: RAT, Strain/Sex: WISTAR/FEMALE, Target Tissue: Type of Lesion: KIDNEY: MESENCHYMAL TUMOR, Dose [Carcinogen]: 40 MG/KG BW ONCE, Promoter: NONE USED): 22/27 (82%), 21/21 (100%), -22%, not significant | tumour outcome (control, treated, inhibition, significance) (Carcinogen: N-(4-(5-NITRO-2-FURYL)-2-THIAZOLYL)FORMAMIDE, 24554-26-5, Dose [Inhibitor]: 120 MG/KG DIET DAILY STARTING 1 WK AFTER COMPLETION OF CARCINOGEN TREATMENT AND CONTINUING UNTIL END OF STUDY (STUDY DUR, Route [Inhibitor]: ORAL, Species: RAT, Strain/Sex: F344/FEMALE, Target Tissue: Type of Lesion: URINARY BLADDER: CARCINOMA, Dose [Carcinogen]: 2 G/KG DIET DAILY FOR 10 WK, Promoter: NONE USED): 36/100 (36%), 42/100 (42%), -17%, p 0.135
